Data published in patent US20030100595A1, “Oral dosage form of a sulfonamide prodrug” (priority 2001, published 2003).

Key:
[1] = Human pharmacokinetic study: valdecoxib blood plasma concentration by HPLC; assay type: in vivo
Procedure: Subjects drank 180 ml water one, two and three hours postdose. […] Rapid onset is a highly desirable feature of many therapies for COX-2 mediated disorders, particularly those accompanied by acute pain. […] Each subject received each of three treatments, in randomized sequence, treatments being separated by 15 days. […] Following each treatment, subjects drank 180 ml water one, two and three hours after the treatment.

[2] = target: COX-1 (Homo sapiens, UniProt P23219); details: background statement, in words; cited from earlier work
[3] = background statement, in words; cited from earlier work

Chain of COX-1 (P23219 24-599): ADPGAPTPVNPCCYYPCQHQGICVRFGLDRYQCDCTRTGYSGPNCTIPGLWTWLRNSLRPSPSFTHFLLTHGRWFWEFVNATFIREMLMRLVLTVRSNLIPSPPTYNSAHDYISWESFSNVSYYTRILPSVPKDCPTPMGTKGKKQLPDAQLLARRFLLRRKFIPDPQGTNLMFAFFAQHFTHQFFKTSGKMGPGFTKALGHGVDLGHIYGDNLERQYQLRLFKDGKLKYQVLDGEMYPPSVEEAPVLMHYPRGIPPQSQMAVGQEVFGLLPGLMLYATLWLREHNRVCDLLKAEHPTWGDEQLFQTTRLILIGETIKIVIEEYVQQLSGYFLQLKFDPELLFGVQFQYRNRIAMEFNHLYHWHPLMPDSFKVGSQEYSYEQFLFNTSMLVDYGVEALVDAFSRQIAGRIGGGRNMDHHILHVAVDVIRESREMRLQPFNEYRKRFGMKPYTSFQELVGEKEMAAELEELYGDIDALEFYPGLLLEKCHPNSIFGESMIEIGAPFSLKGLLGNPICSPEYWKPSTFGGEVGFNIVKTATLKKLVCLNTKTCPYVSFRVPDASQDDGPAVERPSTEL

SMILES	conversion of parecoxib to valdecoxib ([1]; administered orally to a human subject)	in vitro inhibitory activity against COX-1 [2]	water solubility [3]	Tmax ([1]; male, human, plasma, po, 20 mg) [h]	half-life ([1]; male, human, plasma, po, 20 mg) [h]
CCC(=O)NS(=O)(=O)c1ccc(-c2c(-c3ccccc3)noc2C)cc1 [parecoxib]	rapidly and completely converted to valdecoxib	weak	high	–	–
Cc1onc(-c2ccccc2)c1-c1ccc(S(N)(=O)=O)cc1 [valdecoxib]	–	weak	substantially water-insoluble	3.11	7.69 ± 2.45
